{
  "source": "patent US7354567B2",
  "about": "“Method of encapsulating metal complex within liposomes” (Bio Med Core Incorporation, priority 2002, dated 2008)",
  "key": {"[1]": {"assay": "Stability of 99mTc complex in an aqueous solution (radiochemical purity over time)", "format": "physicochemical", "conditions": "for radiochemical purity: after purification by RP-HPLC, after 24 hours", "protocol": "5. Stability of ^99mTc Complex in an Aqueous Solution\nIn order to compare the stability of ^99mTc-HMPAO and ^99mTc-MRP20 in an aqueous solution, ^99mTc-HMPAO solution was diluted with 50 mM ammonia buffer solution (pH 9.4) into the final ligand concentration of 1 mM. The mixture was incubated in a water bath of 25° C. or 37° C., and radiochemical purity was determined by the above-mentioned analyzing methods after predetermined time (0.5, 2, 4, 8, or 24 hours). ^99mTc-MRP20 aqueous solution was diluted with 50 mM phosphate buffer solution (pH 8.3), and the similar operations were effected.\nFor the purpose of examining the effect of free ligands on the stability, ^99mTc complex solution was purified by RP-HPLC, and the purified ^99mTc complex solution eluted in 100% acetonitrile was mixed and diluted in the ratio of 1:1 with a buffer solution, and changes over time of the radiochemical purity of the complex was examined similarly as for the complex before purification."}, "[2]": {"assay": "Partition coefficient of HMPAO and MRP20 (octanol/buffer, absorbance)", "format": "physicochemical", "protocol": "4. Measurement of Partition Coefficient of HMPAO and MRP20\n20 μl of HMPAO or MRP20 solutions adjusted to 8 mM with a physiology saline solution was added to 500 μl of octanol and 500 μl of a HEPES buffer solution (pH 7.0) or Na2HPO4—NaOH buffer solution (pH 12.0). The mixture was allowed to stand still after stirring. Absorption of the octanol layer and the aqueous layer was measured, and the lipophilic properties of the two complexes were compared."}},
  "data": [
    {"compound": "C/C(=N\\[O-])[C@@H](C)[N-]CC(C)(C)C[N-][C@H](C)/C(C)=N/O.[O]=[99Tc+3]", "note": "[^99mTc-HMPAO, ^99mTc-hexamethyl propyleneamine oxime, reference compound]", "values": [
      {"measurement": "radiochemical purity", "setting": "[1]; 25° C.", "result": 59, "unit": "%"},
      {"measurement": "radiochemical purity remaining (decomposed to)", "setting": "[1]; unpurified complex, 30 minutes after complex formation", "result": "about 40%"}
    ]},
    {"compound": "^99mTc-N-[2-(1H-pyrrolylmethyl)]-N′-(4-penten-3-on-2)-ethane-1,2-diamine [^99mTc-MRP20]", "values": [
      {"measurement": "radiochemical purity", "setting": "[1]; 25° C.", "result": 6, "unit": "%"},
      {"measurement": "radiochemical purity remaining (decomposed to)", "setting": "[1]; unpurified complex, 25° C., 4 hours after complex formation", "result": "about 40%"},
      {"measurement": "radiochemical purity retained", "setting": "[1]; unpurified complex, 2 hours after complex formation", "result": "about 70%"}
    ]},
    {"compound": "CC(=O)C=C(C)NCCNCc1ccc[nH]1", "note": "[MRP20, N-[2-(1H-pyrrolylmethyl)]-N′-(4-penten-3-one-2)-ethane-1,2-diamine]", "values": [
      {"measurement": "ratio of absorbances in the octanol layer and the water layer", "setting": "[2]; pH of the buffer 7.0", "result": "2.1±0.7"},
      {"measurement": "ratio of absorbances in the octanol layer and the water layer", "setting": "[2]; pH of the buffer 12.0", "result": "5.0±1.6"}
    ]},
    {"compound": "C/C(=N\\O)C(C)NCC(C)(C)CNC(C)/C(C)=N/O", "note": "(centres unmarked) [HMPAO, hexamethyl propyleneamine oxime, reference compound]", "values": [
      {"measurement": "Absorbance transferred to the octanol layer", "setting": "[2]; octanol / buffer (pH 7.0 or pH 12.0)", "result": "below the detection limit"}
    ]}
  ]
}
